Results published in PubChem BioAssay (NCI).
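Tested at 5 concentrations; 48 h exposure; 96-well plates; endpoints linearly interpolated, else capped at highest concentration. TGI marks complete inhibition of growth.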

Columns and labels:
Assay in all cases: NCI tumour cell line growth inhibition, 48 h
[1] = test system: MDA-N
[2] = test system: RXF 393 renal
[3] = test system: SK-MEL-28 melanoma
[4] = test system: A498 renal
[5] = test system: HCT-116 colon
[6] = test system: K-562 leukemia
[7] = test system: 786-0 renal
[8] = test system: SNB-19 CNS
[9] = test system: A549 NSCLC
[10] = test system: SF-295 CNS
[11] = test system: OVCAR-4 ovarian
[12] = test system: LOX IMVI melanoma
[13] = test system: T-47D breast
[14] = test system: HCT-15 colon
[15] = test system: UO-31 renal
[16] = test system: HOP-92 NSCLC
[17] = test system: COLO 205 colon
[18] = test system: NCI-H226 lung
[19] = test system: SK-MEL-2 melanoma
[20] = test system: UACC-62 melanoma
[21] = test system: EKVX NSCLC
[22] = test system: U251 CNS
[23] = test system: HL-60(TB) leukemia
[24] = test system: SK-OV-3 ovarian
[25] = test system: CAKI-1 renal
[26] = test system: OVCAR-5 ovarian
[27] = test system: OVCAR-3 ovarian
[28] = test system: SN12C renal
[29] = test system: MDA-MB-231 breast
[30] = test system: MOLT-4 leukemia
[31] = test system: NCI-H23 lung
[32] = test system: ACHN renal
[33] = test system: NCI-H522 lung
[34] = test system: BT-549 breast
[35] = test system: MCF7 breast
[36] = test system: UACC-257 melanoma
[37] = test system: SNB-75 CNS
[38] = test system: HT29 colon
[39] = test system: SF-539 CNS
[40] = test system: NCI/ADR-RES ovarian
[41] = test system: SF-268 CNS
[42] = test system: CCRF-CEM leukemia
[43] = test system: HOP-62 NSCLC
[44] = test system: OVCAR-8 ovarian
[45] = test system: M14 melanoma
[46] = test system: MALME-3M melanoma
[47] = test system: MDA-MB-435
[48] = test system: RPMI-8226 leukemia
[49] = test system: KM12 colon
[50] = test system: HS 578T breast
[51] = test system: SW-620 colon
[52] = test system: PC-3 prostate
[53] = test system: IGROV1 ovarian
[54] = test system: TK-10 renal
[55] = test system: DU-145 prostate
[56] = test system: NCI-H460 lung
[57] = test system: SK-MEL-5 melanoma
[58] = test system: HCC-2998 colon

C=C1C(=O)C2=C[C@H]1C[C@H](O)C(=O)[C@]1(C)CCCC(C)(C)[C@H]1C[C@H]2O
TGI [1]: 4.06 µM | TGI [2]: 1.3 µM | TGI [3]: 3.44 µM | TGI [4]: 3.73 µM | TGI [5]: 3 µM | TGI [6]: 0.824 µM | TGI [7]: 2.14 µM | TGI [8]: 29.8 µM | TGI [9]: 2.81 µM | TGI [10]: 20.5 µM | TGI [11]: 19.2 µM | TGI [12]: 2.14 µM | TGI [13]: 2.36 µM | TGI [14]: 1.96 µM | TGI [15]: 5.27 µM | TGI [16]: 3.01 µM | TGI [17]: 1.85 µM | TGI [18]: 23 µM | TGI [19]: 20.9 µM | TGI [20]: 3.05 µM | TGI [21]: 3.31 µM | TGI [22]: 2.6 µM | TGI [23]: 1.03 µM | TGI [24]: 25.4 µM | TGI [25]: 2.85 µM | TGI [26]: 3.72 µM | TGI [27]: 4 µM | TGI [28]: 4.07 µM | TGI [29]: 2.64 µM | TGI [30]: 10.3 µM | TGI [31]: 3.15 µM | TGI [32]: 1.65 µM | TGI [33]: 1.41 µM | TGI [34]: 5.66 µM | TGI [35]: 1.63 µM | TGI [36]: 4.27 µM | TGI [37]: 17.4 µM | TGI [38]: 2.85 µM | TGI [39]: 2.6 µM | TGI [40]: 3.16 µM | TGI [41]: 13.9 µM | TGI [42]: 0.326 µM | TGI [43]: 25.5 µM | TGI [44]: 5.93 µM | TGI [45]: 2.85 µM | TGI [46]: 2.05 µM | TGI [47]: 10.2 µM | TGI [48]: 1.02 µM | TGI [49]: 5.78 µM | TGI [50]: 8.61 µM | TGI [51]: 1.95 µM | TGI [52]: 3.62 µM | TGI [53]: 12.8 µM | TGI [54]: 2.08 µM | TGI [55]: 4.04 µM | TGI [56]: 8.77 µM

COc1ccccc1C1(c2c(OC(C)C)c(=O)c2=O)SCCCS1
TGI [1]: > 100 µM | TGI [2]: > 100 µM | TGI [3]: > 100 µM | TGI [4]: > 100 µM | TGI [5]: > 100 µM | TGI [7]: > 100 µM | TGI [8]: > 100 µM | TGI [9]: > 100 µM | TGI [10]: > 100 µM | TGI [11]: > 100 µM | TGI [12]: > 100 µM | TGI [13]: > 100 µM | TGI [14]: > 100 µM | TGI [15]: > 100 µM | TGI [16]: > 100 µM | TGI [17]: > 100 µM | TGI [18]: > 100 µM | TGI [19]: > 100 µM | TGI [20]: > 100 µM | TGI [21]: > 100 µM | TGI [22]: > 100 µM | TGI [23]: > 100 µM | TGI [24]: > 100 µM | TGI [25]: > 100 µM | TGI [26]: > 100 µM | TGI [27]: > 100 µM | TGI [28]: > 100 µM | TGI [29]: > 100 µM | TGI [30]: > 100 µM | TGI [31]: > 100 µM | TGI [32]: > 100 µM | TGI [33]: > 100 µM | TGI [34]: > 100 µM | TGI [35]: > 100 µM | TGI [36]: > 100 µM | TGI [37]: > 100 µM | TGI [38]: > 100 µM | TGI [39]: > 100 µM | TGI [40]: > 100 µM | TGI [41]: > 100 µM | TGI [42]: > 100 µM | TGI [43]: > 100 µM | TGI [44]: > 100 µM | TGI [45]: > 100 µM | TGI [47]: > 100 µM | TGI [57]: > 100 µM | TGI [49]: > 100 µM | TGI [50]: > 100 µM | TGI [51]: > 100 µM | TGI [52]: > 100 µM | TGI [53]: > 100 µM | TGI [54]: > 100 µM | TGI [55]: > 100 µM | TGI [56]: > 100 µM

CO[C@]12C#CC=CC#C[C@@H](O)[C@]3(CCC1)O[C@@]23c1cccc(O)c1
TGI [1]: > 100 µM | TGI [2]: > 100 µM | TGI [3]: > 100 µM | TGI [4]: > 100 µM | TGI [5]: > 100 µM | TGI [6]: > 100 µM | TGI [7]: > 100 µM | TGI [8]: > 100 µM | TGI [9]: > 100 µM | TGI [10]: > 100 µM | TGI [11]: > 100 µM | TGI [12]: > 100 µM | TGI [13]: > 100 µM | TGI [14]: > 100 µM | TGI [15]: > 100 µM | TGI [17]: > 100 µM | TGI [18]: > 100 µM | TGI [19]: > 100 µM | TGI [20]: > 100 µM | TGI [22]: > 100 µM | TGI [24]: > 100 µM | TGI [25]: > 100 µM | TGI [26]: > 100 µM | TGI [27]: > 100 µM | TGI [28]: > 100 µM | TGI [29]: > 100 µM | TGI [30]: > 100 µM | TGI [31]: > 100 µM | TGI [58]: > 100 µM | TGI [32]: > 100 µM | TGI [34]: > 100 µM | TGI [35]: > 100 µM | TGI [36]: > 100 µM | TGI [37]: > 100 µM | TGI [40]: > 100 µM | TGI [41]: > 100 µM | TGI [43]: > 100 µM | TGI [44]: > 100 µM | TGI [45]: > 100 µM | TGI [47]: > 100 µM | TGI [48]: > 100 µM | TGI [49]: > 100 µM | TGI [50]: > 100 µM | TGI [51]: > 100 µM | TGI [52]: > 100 µM | TGI [54]: > 100 µM | TGI [55]: > 100 µM | TGI [56]: > 100 µM

COC(=O)[C@H](Cc1c[nH]c2ccccc12)NC(=O)OCC1OC(n2cc(C)c(=O)[nH]c2=O)CC1N=[N+]=[N-] (some centres not stated)
TGI [1]: > 100 µM | TGI [2]: > 100 µM | TGI [5]: > 100 µM | TGI [6]: > 100 µM | TGI [7]: > 100 µM | TGI [8]: > 100 µM | TGI [9]: > 100 µM | TGI [10]: > 100 µM | TGI [11]: > 100 µM | TGI [12]: > 100 µM | TGI [13]: > 100 µM | TGI [14]: > 100 µM | TGI [15]: > 100 µM | TGI [16]: > 100 µM | TGI [17]: > 100 µM | TGI [18]: > 100 µM | TGI [19]: > 100 µM | TGI [20]: > 100 µM | TGI [21]: > 100 µM | TGI [22]: > 100 µM | TGI [23]: > 100 µM | TGI [24]: > 100 µM | TGI [25]: > 100 µM | TGI [26]: > 100 µM | TGI [27]: > 100 µM | TGI [28]: > 100 µM | TGI [29]: > 100 µM | TGI [30]: > 100 µM | TGI [31]: > 100 µM | TGI [58]: > 100 µM | TGI [32]: > 100 µM | TGI [33]: > 100 µM | TGI [34]: > 100 µM | TGI [35]: > 100 µM | TGI [36]: > 100 µM | TGI [37]: > 100 µM | TGI [38]: > 100 µM | TGI [40]: > 100 µM | TGI [41]: > 100 µM | TGI [42]: > 100 µM | TGI [43]: > 100 µM | TGI [44]: > 100 µM | TGI [45]: > 100 µM | TGI [46]: > 100 µM | TGI [47]: > 100 µM | TGI [48]: > 100 µM | TGI [57]: > 100 µM | TGI [49]: > 100 µM | TGI [50]: > 100 µM | TGI [51]: > 100 µM | TGI [52]: > 100 µM | TGI [53]: > 100 µM | TGI [54]: > 100 µM | TGI [55]: > 100 µM | TGI [56]: > 100 µM

CO/C=C(/C(=O)OC)c1ccccc1Oc1c(F)c(F)c(F)c(F)c1F
TGI [1]: > 100 µM | TGI [2]: 63.8 µM | TGI [3]: > 100 µM | TGI [4]: 92.9 µM | TGI [5]: 56 µM | TGI [6]: > 100 µM | TGI [7]: > 100 µM | TGI [8]: > 100 µM | TGI [9]: > 100 µM | TGI [10]: > 100 µM | TGI [11]: 85.4 µM | TGI [12]: > 100 µM | TGI [13]: 73.1 µM | TGI [14]: > 100 µM | TGI [15]: > 100 µM | TGI [16]: 69.2 µM | TGI [17]: 35.3 µM | TGI [18]: > 100 µM | TGI [19]: 58.1 µM | TGI [20]: 68.5 µM | TGI [21]: > 100 µM | TGI [22]: > 100 µM | TGI [23]: 5.72 µM | TGI [24]: > 100 µM | TGI [25]: 66.5 µM | TGI [26]: > 100 µM | TGI [27]: 62.4 µM | TGI [28]: > 100 µM | TGI [29]: > 100 µM | TGI [30]: 30.4 µM | TGI [31]: > 100 µM | TGI [58]: > 100 µM | TGI [32]: > 100 µM | TGI [34]: > 100 µM | TGI [35]: > 100 µM | TGI [36]: 82.7 µM | TGI [38]: > 100 µM | TGI [39]: > 100 µM | TGI [40]: > 100 µM | TGI [41]: > 100 µM | TGI [42]: 98.5 µM | TGI [43]: > 100 µM | TGI [44]: > 100 µM | TGI [45]: > 100 µM | TGI [47]: 77.8 µM | TGI [48]: 41.2 µM | TGI [57]: 40.8 µM | TGI [49]: > 100 µM | TGI [50]: 86 µM | TGI [52]: > 100 µM | TGI [53]: 97.7 µM | TGI [54]: 88.2 µM | TGI [55]: > 100 µM | TGI [56]: > 100 µM
